Laboratory results as given in patent publication US20210227825A1, “SAFENER” (Nippon Soda Co., Ltd., priority 2018, published 2021).

System: rice seedling (variety: Koshihikari)
Experiment: Rice hydroponics test tube test, number of new roots after 5 days (Example 5, Comparative Examples 1 and 2)
Assay type: in vivo
Conditions: for safener effect on inhibition of new root development by pyrazosulfuron-ethyl: 0.01 mg pyrazosulfuron-ethyl in 1 L hydroponics solution; for Condition of new roots in test tube of safener composition: 0.01 mg pyrazosulfuron-ethyl plus the safener (0.1 ml safener (A) or 0.01 mg comparative) in 1 L hydroponics solution
Procedure: One rice seedling (variety: Koshihikari) in the two-leaf stage was transplanted into the test tube. This was placed in an artificial meteorological instrument set to 16 hours (25° C.) in the light period and 8 hours (20° C.) in the dark period. After a lapse of 5 days, the number of new roots was counted. This test was performed a total of 6 times. An average value was calculated from the measured values for 6 times.
A comparative safener composition (1) was obtained by the same method as that for the safener composition (2), with the exception that 0.1 ml of the safener (A) of Example 5 was replaced with a solution obtained by dissolving 0.01 mg of α-naphthylacetamide in 10 μl of DMSO.
A comparative safener composition (2) was obtained by the same method as that for the safener composition (2), with the exception that 0.1 ml of the safener (A) of Example 5 was replaced with a solution obtained by dissolving 0.01 mg of indole butyric acid in 10 μl of DMSO.

Compound: indole butyric acid
- safener effect on inhibition of new root development by pyrazosulfuron-ethyl: no safener effect
- Condition of new roots in test tube of safener composition: 5.0 roots

Compound: NC(=O)Cc1cccc2ccccc12 [α-Naphthylacetamide, α-naphthylacetamide]
- safener effect on inhibition of new root development by pyrazosulfuron-ethyl: no safener effect
- Condition of new roots in test tube of safener composition: 3.3 roots
